Consider nine molecules from patent US20240043390A1, “COMPOSITIONS AND METHODS FOR TREATING CANCER” (The Regents of the University of California, priority 2017, published 2024).

One series is described as follows: Kpuu. It is filed as in vivo. Particulars: average; for Kp uu: brain/blood. An excerpt:
(§1) Fu refers to “fraction unbound”.

The nature of series [1]: Protein binding (fraction unbound) in blood and brain. It is filed as in vitro ADME.
Description: as §1

Series [2] in a line: Pharmacokinetic studies, plasma and brain. It is filed as in vivo, male CD-1 mice. Particulars: oral; JGK005 10 mg/kg, erlotinib 25 mg/kg; FIG. 1. How it is done:
Pharmacokinetic studies were performed on male CD-1 mice aged 8-10 weeks. Mice were dosed as indicated in duplicates. At the time points, whole blood was obtained by retro-orbital bleeding and brain tissue was harvested. Blood samples were centrifuged to obtain plasma and brain tissue was washed and homogenized. Samples were extracted with acetonitrile and supernatant was dried using a speed-vac. Dried samples were solubilized in 50:50:0.1 acetonitrile:water:formic acid and quantified on an Agilent 6400 series Triple Quadrupole LC/MS.

The next series deals with GBM39. Nature of the series: GI50 assay, Cell Titer Glo, 3 days. Particulars: GBM39, FIG. 2. It is filed as cell-based, human.
Another series relates to HK301. Nature of the series: GI50 assay, Cell Titer Glo, 3 days. It is filed as cell-based, human. Particulars: HK301, FIG. 2. (In general: ATP-based viability assays read luminescence as a measure of living cells.)
The test system of another series is HK301 cells. Nature of the series: Annexin V apoptosis assay. It is filed as cell-based, human. Particulars: HK301 gliomaspheres, 72 hours, nutlin 2.5 μM. On the procedure: (§2) Cells were collected and analyzed for Annexin V and PI staining according to manufacturer's protocol (BD Biosciences). Briefly, cells were plated at 5×10^4 cells/ml and treated with appropriate drugs. Following indicated time points, cells were collected, trypsinized, washed with PBS, and stained with Annexin V and PI for 15 minutes. Samples were then analyzed using the BD LSRII flow cytometer.
(§3) Annexin V staining was measured following 72 hrs of treatment. Using the Chalice software, the response of the combination was compared to its single agents. The combinatorial effects were calculated using the synergy score.

For series [3], the system named is patient-derived GBM gliomaspheres. Nature of the series: Annexin V apoptosis assay. It is filed as cell-based, human. Particulars: for lethality in combination with nutlin: EGFRi non-responder cells (HK393, HK254). How it is done:
as §2, §3

The subject of another series is HK393 and HK254 cells. Nature of the series: 18F-FDG uptake assay in cells. It is filed as cell-based, human. Particulars: 4 hours, pictilisib 1 μM. How it is done:
Cells were plated at 5×10^4 cells/ml and treated with designated drugs for indicated time points. Following appropriate treatment, cells were collected and resuspended in glucose-free DMEM/F12 (USBiological) containing ^18F-FDG (radioactivity 1 μCi/mL). Cells were incubated at 37° C. for 1 hr and then washed three times with ice cold PBS. Radioactivity of each sample was then measured using a gamma counter.

Series [4] concerns GBM39 intracranial xenografts. Nature of the series: 18F-FDG PET/CT imaging of intracranial xenografts. Particulars: erlotinib 75 mg/kg, 15 hours post administration. It is filed as in vivo, NSG mice. On the procedure:
(§4) Drugs were administered through oral gavage.
(§5) Following 1 hr unconscious uptake, mice were taken off anesthesia but kept warm for another 5 hr of uptake. 6 hr after the initial administration of ^18F-FDG, mice were imaged using G8 PET/CT scanner (Sofie Biosciences). Per above, quantification was performed by drawing 3D regions of interest (ROI) using the AMIDE software.

In series [5] the test system is HK393 intracranial xenografts. Nature of the series: 18F-FDG PET/CT imaging of intracranial xenografts. It is filed as in vivo, NSG mice. Particulars: acute EGFRi (erlotinib 75 mg/kg). How it is done: as §4, §5
The next series concerns gliomas. Particulars: cited from earlier work.

Structures are written as SMILES. Where two headings read alike, the source gives them in different places. A value given as a limit tells only on which side of the number the result lay.

For `COc1cc2ncnc(Nc3cccc(Cl)c3F)c2cc1OC(=O)N1CCN(C)C[C@H]1C` [AZD3759], the “Kpuu (Avg)” value in “Kpuu” turned out to be 1.30. In addition, in series [1], the “Bound (blood)” value is given as 94.07%, the “Bound (brain)” value is 97.23% and the fraction unbound came to 0.0277. In addition, the fraction unbound in [1] (blood) worked out at 0.0593.

Consider `C#Cc1cccc(Nc2ncnc3cc4c(cc23)OCCO4)c1` [JGK005], for which the CNS penetration result in series [2] was “good CNS penetration compared to erlotinib”. Moreover, the “activity against EGFR mutant glioblastoma” value in the series with GBM39 and in the series with HK301 was “lower activity than erlotinib” each time.

For `CC[C@H]1/C=C/C=C/C[C@@H](C)[C@H](O)[C@@](C)(O)C(=O)[C@@H](C)[C@H](O)[C@@H](C)C(=O)[C@@H](C)[C@H](O)[C@@H](C)/C=C/C(=O)O[C@@H]2[C@H](C)[C@H](CC1)O[C@]1(CC[C@H](C)[C@H](C[C@@H](C)O)O1)[C@H]2C` [oligomycin], the synergy with nutlin entry with HK301 cells is recorded as “did not synergize with nutlin treatment”.

As to `O=CC[C@@H](O)[C@H](O)[C@H](O)CO` [2DG, 2-deoxyglucose], the “lethality in combination with nutlin” value in series [3] is recorded as “synergistic lethality”. Also, the synergy with nutlin entry in the series with HK301 cells is recorded as “synergy with nutlin”.

For `CS(=O)(=O)N1CCN(Cc2cc3nc(-c4cccc5[nH]ncc45)nc(N4CCOCC4)c3s2)CC1` [pictilisib], the 18F-FDG uptake result in the series with HK393 and HK254 cells was “significantly reduced ^18F-FDG uptake”. For the same molecule, the “lethality in combination with nutlin” value in series [3] is recorded as “synergistic lethality”.

For `C=C(C)[C@H]1Cc2c(ccc3c2O[C@@H]2COc4cc(OC)c(OC)cc4[C@@H]2C3=O)O1` [rotenone], the synergy with nutlin entry with HK301 cells was “did not synergize with nutlin treatment”.

As to `Fc1c(Br)cccc1Nc1ncnc2cc3c(cc12)OCCO3` [JGK037, N-(3-Bromo-2-fluorophenyl)-7,8-dihydro[1,4]dioxino[2,3-g]quinazolin-4-amine], in the series “Kpuu”, the “Kpuu (Avg)” value was 1.2994.

As for `C#Cc1cccc(Nc2ncnc3cc(OCCOC)c(OCCOC)cc23)c1` [Erlotinib], the “18F-FDG uptake (PET)” value in series [4] was “rapidly reduced ^18F-FDG uptake”; in series [5], “no changes in ^18F-FDG uptake”. Moreover, the Kp uu in “Kpuu” came out at 0.0513. The response rates in the series on gliomas was at most 25%. Moreover, the “apoptosis (annexin V staining)” value in [3] (non-responders, 72 hours of erlotinib exposure, 1 μM) is −3%.

In the case of `Fc1c(Cl)cccc1Nc1ncnc2cc3c(cc12)OCCO3` [JGK010], in the series “Kpuu”, the Kp uu came to 1.15. The “Bound (blood)” value in [1] (blood (first line of each compound)) was 99.48%. Moreover, the fraction unbound worked out at 0.0052 in series [1] (blood (first line of each compound), read-out: Fu (blood)) and 0.0056 in [1] (brain (second line of each compound), read-out: Fu (brain)). Moreover, in series [1] (brain (second line of each compound)), the “Bound (brain)” value turned out to be 99.44%.
